# Test results taken from PMC4893804 (Journal of medicinal chemistry, 2015).
# Where two headings read alike, the source gives them in different places.
# Legend:
# Type in all cases: biochemical
# HIV-1 RT = HIV-1 RT (Human immunodeficiency virus type 1 group M subtype B, UniProt P03366); test: HIV-1 reverse transcriptase assay with homopolymeric template/primers
# [1] = target: HCMV DNA polymerase (UL54) (Human cytomegalovirus, UniProt P08546); test: Enzyme assay with HCMV DNA polymerase; details: for IC50: activated calf thymus DNA, [3H]dTTP; for superior activity against HCMV DNA polymerase compared to thymine-α-CNP: ratio vs thymine-α-CNP
# HSV-1 DNA polymerase = HSV-1 DNA polymerase (Human herpesvirus 1, UniProt P04293); test: Enzyme assay with HSV-1 DNA polymerase
# VZV DNA polymerase = VZV DNA polymerase (Varicella-zoster virus, UniProt P09252); test: Enzyme assay with VZV DNA polymerase
# Human DNA Pol α = target: T1, Human DNA Pol α (Homo sapiens, UniProt P09884); test: Enzyme assay with human DNA polymerase α
# T1 sequence (P09884 1-1462): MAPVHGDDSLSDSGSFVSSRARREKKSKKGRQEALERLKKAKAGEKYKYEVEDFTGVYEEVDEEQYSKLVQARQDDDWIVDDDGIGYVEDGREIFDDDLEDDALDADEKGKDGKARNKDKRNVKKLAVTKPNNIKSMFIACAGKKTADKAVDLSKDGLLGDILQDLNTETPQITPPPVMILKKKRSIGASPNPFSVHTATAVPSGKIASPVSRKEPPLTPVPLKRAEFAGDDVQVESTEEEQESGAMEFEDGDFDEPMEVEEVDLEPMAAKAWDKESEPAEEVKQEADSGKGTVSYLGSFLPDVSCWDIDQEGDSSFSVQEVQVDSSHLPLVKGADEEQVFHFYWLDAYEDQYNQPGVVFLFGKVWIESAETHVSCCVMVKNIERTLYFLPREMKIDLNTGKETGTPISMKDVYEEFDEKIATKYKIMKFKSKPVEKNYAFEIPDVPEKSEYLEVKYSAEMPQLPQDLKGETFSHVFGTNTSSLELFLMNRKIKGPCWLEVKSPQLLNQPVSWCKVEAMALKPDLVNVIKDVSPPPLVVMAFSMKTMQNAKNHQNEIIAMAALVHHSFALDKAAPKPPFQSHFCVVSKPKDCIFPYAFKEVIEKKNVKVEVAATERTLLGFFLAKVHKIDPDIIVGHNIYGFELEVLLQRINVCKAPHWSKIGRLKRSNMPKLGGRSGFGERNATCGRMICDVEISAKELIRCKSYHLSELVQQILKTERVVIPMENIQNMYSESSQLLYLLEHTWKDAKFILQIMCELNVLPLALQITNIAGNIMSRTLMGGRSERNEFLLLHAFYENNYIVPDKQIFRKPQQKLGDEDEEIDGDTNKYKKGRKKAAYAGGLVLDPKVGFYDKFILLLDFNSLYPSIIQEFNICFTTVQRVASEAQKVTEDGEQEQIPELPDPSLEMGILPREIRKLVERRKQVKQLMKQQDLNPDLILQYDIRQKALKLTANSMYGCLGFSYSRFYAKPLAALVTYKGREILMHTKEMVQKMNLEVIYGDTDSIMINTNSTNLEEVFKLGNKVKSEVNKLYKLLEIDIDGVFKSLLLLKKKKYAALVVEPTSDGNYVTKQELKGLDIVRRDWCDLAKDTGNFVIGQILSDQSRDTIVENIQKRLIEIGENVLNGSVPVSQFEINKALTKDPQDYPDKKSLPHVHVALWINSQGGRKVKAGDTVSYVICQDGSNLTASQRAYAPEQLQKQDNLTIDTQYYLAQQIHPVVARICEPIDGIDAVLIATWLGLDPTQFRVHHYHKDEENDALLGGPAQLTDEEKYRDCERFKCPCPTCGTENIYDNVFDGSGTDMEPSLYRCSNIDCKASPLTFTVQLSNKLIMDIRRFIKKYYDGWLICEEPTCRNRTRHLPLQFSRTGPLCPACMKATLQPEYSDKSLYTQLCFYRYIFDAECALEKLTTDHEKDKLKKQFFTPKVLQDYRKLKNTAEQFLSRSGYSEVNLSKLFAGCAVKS
# Human DNA Pol β = Human DNA Pol β (Homo sapiens, UniProt P06746); test: Enzyme assay with human DNA polymerase β
# [2] = IC50 HIV-1 RT, poly rA.dT template/primer, [3H]dTTP
# [3] = read-out: IC50 HIV-1 RT, poly rA.dT template/primer, [3H]dTTP
# [4] = read-out: IC50 HSV-1 DNA Pol, activated calf thymus DNA, [3H]dTTP
# [5] = read-out: IC50 VZV DNA Pol, poly dA.oligo dT, [3H]dTTP
# [6] = read-out: IC50 Human DNA Pol α, activated calf thymus DNA, [3H]dTTP
# [7] = read-out: IC50 Human DNA Pol β, activated calf thymus DNA, [3H]dTTP
# Sequence of HSV-1 DNA polymerase (P04293 whole entry): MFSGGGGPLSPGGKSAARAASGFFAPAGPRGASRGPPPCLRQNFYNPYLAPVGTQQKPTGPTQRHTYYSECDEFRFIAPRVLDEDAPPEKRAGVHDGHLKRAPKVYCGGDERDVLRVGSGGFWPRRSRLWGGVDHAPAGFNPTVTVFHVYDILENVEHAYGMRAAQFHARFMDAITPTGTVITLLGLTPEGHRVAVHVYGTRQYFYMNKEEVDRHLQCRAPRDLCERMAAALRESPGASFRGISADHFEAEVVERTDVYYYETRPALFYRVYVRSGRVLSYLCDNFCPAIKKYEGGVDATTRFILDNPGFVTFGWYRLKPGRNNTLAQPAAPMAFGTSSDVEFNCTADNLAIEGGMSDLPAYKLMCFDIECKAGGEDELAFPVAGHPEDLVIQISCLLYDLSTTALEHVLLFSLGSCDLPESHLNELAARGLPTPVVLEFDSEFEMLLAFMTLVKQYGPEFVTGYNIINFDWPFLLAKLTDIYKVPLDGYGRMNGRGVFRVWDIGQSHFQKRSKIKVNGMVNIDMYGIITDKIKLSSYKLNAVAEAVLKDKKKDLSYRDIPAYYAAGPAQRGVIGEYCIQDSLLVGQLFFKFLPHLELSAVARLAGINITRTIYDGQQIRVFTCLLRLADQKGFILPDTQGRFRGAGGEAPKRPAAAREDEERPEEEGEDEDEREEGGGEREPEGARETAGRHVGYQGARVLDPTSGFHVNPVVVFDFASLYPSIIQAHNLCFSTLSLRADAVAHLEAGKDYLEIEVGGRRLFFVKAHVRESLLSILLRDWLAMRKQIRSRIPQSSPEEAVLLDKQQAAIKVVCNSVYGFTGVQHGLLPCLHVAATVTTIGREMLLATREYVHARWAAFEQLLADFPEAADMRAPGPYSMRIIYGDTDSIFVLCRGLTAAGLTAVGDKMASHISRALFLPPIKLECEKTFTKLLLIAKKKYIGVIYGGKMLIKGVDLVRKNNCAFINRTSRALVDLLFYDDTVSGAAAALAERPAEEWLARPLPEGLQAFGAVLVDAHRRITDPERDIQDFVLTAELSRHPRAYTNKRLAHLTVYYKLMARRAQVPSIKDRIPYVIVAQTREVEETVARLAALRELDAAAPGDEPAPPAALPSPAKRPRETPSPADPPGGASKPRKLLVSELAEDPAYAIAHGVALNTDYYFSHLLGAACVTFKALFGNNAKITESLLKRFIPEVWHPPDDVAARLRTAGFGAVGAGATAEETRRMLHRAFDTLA
# Sequence of VZV DNA polymerase (P09252 whole entry): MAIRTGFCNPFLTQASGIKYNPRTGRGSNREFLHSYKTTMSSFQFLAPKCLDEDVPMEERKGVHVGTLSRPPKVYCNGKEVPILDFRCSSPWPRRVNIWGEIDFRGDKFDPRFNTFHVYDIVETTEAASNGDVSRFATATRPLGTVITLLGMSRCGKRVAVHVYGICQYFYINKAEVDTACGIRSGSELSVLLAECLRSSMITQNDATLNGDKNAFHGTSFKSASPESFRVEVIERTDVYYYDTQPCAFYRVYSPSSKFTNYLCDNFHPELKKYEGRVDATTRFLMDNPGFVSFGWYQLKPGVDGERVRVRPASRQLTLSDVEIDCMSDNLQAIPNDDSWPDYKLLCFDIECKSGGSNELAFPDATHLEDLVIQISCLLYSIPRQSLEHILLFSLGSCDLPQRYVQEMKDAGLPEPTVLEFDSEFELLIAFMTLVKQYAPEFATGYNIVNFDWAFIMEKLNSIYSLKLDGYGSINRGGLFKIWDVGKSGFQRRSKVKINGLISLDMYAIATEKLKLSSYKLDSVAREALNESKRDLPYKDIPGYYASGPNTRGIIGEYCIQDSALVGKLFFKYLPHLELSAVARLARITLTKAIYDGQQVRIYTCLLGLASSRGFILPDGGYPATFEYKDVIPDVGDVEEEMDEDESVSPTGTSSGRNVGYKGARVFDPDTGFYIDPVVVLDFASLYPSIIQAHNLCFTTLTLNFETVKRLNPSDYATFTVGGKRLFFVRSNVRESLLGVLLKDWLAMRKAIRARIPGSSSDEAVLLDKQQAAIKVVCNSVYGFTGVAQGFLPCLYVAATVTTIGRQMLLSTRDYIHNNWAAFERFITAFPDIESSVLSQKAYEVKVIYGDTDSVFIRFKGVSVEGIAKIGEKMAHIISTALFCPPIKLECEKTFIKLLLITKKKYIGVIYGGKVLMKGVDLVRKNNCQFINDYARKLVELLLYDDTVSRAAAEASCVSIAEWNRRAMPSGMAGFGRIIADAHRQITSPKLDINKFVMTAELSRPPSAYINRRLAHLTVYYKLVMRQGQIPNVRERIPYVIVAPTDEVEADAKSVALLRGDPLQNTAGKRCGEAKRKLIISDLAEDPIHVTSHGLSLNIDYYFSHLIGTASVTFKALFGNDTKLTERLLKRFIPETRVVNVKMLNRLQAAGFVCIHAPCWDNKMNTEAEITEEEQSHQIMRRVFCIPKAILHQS
# Sequence of HCMV DNA polymerase (UL54) (P08546 whole entry): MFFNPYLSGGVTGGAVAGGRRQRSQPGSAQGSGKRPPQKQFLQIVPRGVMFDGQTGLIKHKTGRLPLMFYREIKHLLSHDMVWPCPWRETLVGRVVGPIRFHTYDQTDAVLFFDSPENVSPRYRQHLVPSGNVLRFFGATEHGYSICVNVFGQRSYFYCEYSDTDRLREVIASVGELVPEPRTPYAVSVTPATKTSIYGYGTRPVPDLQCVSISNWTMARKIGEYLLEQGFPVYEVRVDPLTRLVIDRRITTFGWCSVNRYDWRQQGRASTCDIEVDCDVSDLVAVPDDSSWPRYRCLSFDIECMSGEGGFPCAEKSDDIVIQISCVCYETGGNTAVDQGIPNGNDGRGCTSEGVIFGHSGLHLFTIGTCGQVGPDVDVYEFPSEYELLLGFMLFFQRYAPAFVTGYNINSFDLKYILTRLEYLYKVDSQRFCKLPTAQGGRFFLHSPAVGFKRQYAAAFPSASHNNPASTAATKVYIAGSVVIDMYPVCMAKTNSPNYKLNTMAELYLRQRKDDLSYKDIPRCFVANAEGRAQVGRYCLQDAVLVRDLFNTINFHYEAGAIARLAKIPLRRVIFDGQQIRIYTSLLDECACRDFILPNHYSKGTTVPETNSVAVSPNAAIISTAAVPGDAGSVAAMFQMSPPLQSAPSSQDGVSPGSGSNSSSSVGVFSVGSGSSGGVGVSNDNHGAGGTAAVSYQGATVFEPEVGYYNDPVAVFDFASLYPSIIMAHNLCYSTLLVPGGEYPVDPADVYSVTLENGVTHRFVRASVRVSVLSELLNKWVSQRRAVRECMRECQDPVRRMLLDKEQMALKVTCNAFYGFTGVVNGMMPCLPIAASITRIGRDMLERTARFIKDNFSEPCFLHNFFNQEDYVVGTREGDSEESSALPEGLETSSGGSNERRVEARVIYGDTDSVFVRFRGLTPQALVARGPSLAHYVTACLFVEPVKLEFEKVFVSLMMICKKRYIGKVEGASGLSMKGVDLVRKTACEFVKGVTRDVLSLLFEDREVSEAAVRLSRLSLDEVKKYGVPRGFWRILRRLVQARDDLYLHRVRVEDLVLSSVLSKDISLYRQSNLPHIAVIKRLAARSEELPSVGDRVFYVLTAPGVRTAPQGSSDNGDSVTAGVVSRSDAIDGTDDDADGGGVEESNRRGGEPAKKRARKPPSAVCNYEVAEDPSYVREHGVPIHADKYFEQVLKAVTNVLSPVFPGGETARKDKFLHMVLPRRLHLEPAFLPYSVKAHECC
compound,measurement,setting,value
"Cc1cn(Cc2cn(CCOC(C(=O)O)P(=O)(O)O)nn2)c(=O)[nH]c1=O (stereo not shown) [Compound 6f, 2-(2-(4-((5-methyl-2,4-dioxo-3,4-dihydropyrimidin-1(2H)-yl)methyl)-1H-1,2,3-triazol-1-yl)ethoxy)-2-phosphonoacetic acid]",IC50,HIV-1 RT; [2],> 500 µM
same,IC50,[1]; IC50 HCMV DNA Pol,38 ± 6 µM
same,IC50,HSV-1 DNA polymerase,25 ± 21 µM
same,IC50,VZV DNA polymerase,24 ± 4 µM
same,IC50,Human DNA Pol α,332 ± 28 µM
same,IC50,Human DNA Pol β,361 ± 160 µM
"O=c1[nH]c(=O)n([C@H]2C[C@H](O)[C@@H](COP(=O)(O)OP(=O)(O)OP(=O)(O)O)O2)cc1/C=C/Br [BVDU-TP, (E)-5-(2-Bromovinyl)-2′-deoxyuridine-5′-triphosphate, reference compound]",IC50,HIV-1 RT; [2],0.89 ± 0.4 µM
same,IC50,[1]; IC50 HCMV DNA Pol,3.6 ± 0.7 µM
same,IC50,HSV-1 DNA polymerase,1.9 ± 0.9 µM
same,IC50,VZV DNA polymerase,0.49 ± 0.09 µM
same,IC50,Human DNA Pol α,21 ± 10 µM
same,IC50,Human DNA Pol β,26 ± 4 µM
Cc1cn(C[C@H]2CC=CC[C@H]2COC(C(=O)O)P(=O)(O)O)c(=O)[nH]c1=O (relative stereo) [Compound 6c],IC50,HIV-1 RT; [3],425 ± 106 µM
same,superior activity against HCMV DNA polymerase compared to thymine-α-CNP,[1],8- to 13 fold
same,IC50,[1]; read-out: IC50 HCMV DNA Pol,3 ± 0.5 µM
same,IC50,HSV-1 DNA polymerase; [4],14 ± 3 µM
same,IC50,VZV DNA polymerase; [5],8.5 ± 2.1 µM
same,IC50,Human DNA Pol α; [6],48 ± 36 µM
same,IC50,Human DNA Pol β; [7],> 500 µM
"Cc1cn(Cc2ccccc2COC(C(=O)O)P(=O)(O)O)c(=O)[nH]c1=O (stereo not shown) [Compound 6d, 2-(2-((2,4-Dioxo-5-methyl-pyrimidin-1-yl)methyl)benzyloxy)-2-phosphonoacetic acid]",IC50,HIV-1 RT; [2],131 ± 86 µM
same,superior activity against HCMV DNA polymerase compared to thymine-α-CNP,[1],~ 3 fold
same,IC50,HSV-1 DNA polymerase,7.5 ± 5 µM
same,more active against HSV-1 DNA polymerase than thymine-α-CNP,HSV-1 DNA polymerase; ratio vs thymine-α-CNP,~ 3 fold
same,IC50,VZV DNA polymerase,2.9 ± 0.7 µM
same,more active against VZV DNA polymerase than thymine-α-CNP,VZV DNA polymerase; ratio vs thymine-α-CNP,13 fold
same,IC50,Human DNA Pol α,75 ± 18 µM
same,IC50,Human DNA Pol β,76 ± 30 µM
"Nc1ncnc2c1ncn2[C@H]1CC[C@@H](COP(=O)(O)OP(=O)(O)OP(=O)(O)O)O1 [ddATP, reference compound]",IC50,"HIV-1 RT; IC50 HIV-1 RT Poly rA.dT ([3H]dTTP), Table 7, Poly rA.dT, [3H]dTTP",> 20 µM
same,IC50,"HIV-1 RT; IC50 HIV-1 RT Poly rC.dG ([3H]dGTP), Poly rC.dG, [3H]dGTP",> 20 µM
same,IC50,"HIV-1 RT; IC50 HIV-1 RT Poly rI.dC ([3H]dCTP), Poly rI.dC, [3H]dCTP",> 20 µM
same,IC50,"HIV-1 RT; IC50 HIV-1 RT Poly rU.dA ([3H]dATP), Poly rU.dA, [3H]dATP",0.46 ± 0.12 µM
"Cc1cn(CCCCOC(C(=O)O)P(=O)(O)O)c(=O)[nH]c1=O (stereo not shown) [Compound 6h, 2-(4-(2,4-Dioxo-5-methyl-pyrimidin-1-yl)butyloxy)-2-phosphonoacetic acid]",IC50,HIV-1 RT; [2],145 ± 106 µM
same,IC50,HSV-1 DNA polymerase,45 ± 27 µM
same,IC50,VZV DNA polymerase,27 ± 12 µM
same,IC50,Human DNA Pol α,301 ± 51 µM
same,IC50,Human DNA Pol β,450 ± 105 µM
"Nc1nc2c(ncn2[C@H]2CC[C@@H](COP(=O)(O)OP(=O)(O)OP(=O)(O)O)O2)c(=O)[nH]1 [ddGTP, reference compound]",IC50,"HIV-1 RT; read-out: IC50 HIV-1 RT Poly rA.dT ([3H]dTTP), Table 7, Poly rA.dT, [3H]dTTP",> 20 µM
same,IC50,"HIV-1 RT; read-out: IC50 HIV-1 RT Poly rC.dG ([3H]dGTP), Poly rC.dG, [3H]dGTP",0.26 ± 0.17 µM
same,IC50,"HIV-1 RT; read-out: IC50 HIV-1 RT Poly rI.dC ([3H]dCTP), Poly rI.dC, [3H]dCTP",> 20 µM
same,IC50,"HIV-1 RT; read-out: IC50 HIV-1 RT Poly rU.dA ([3H]dATP), Poly rU.dA, [3H]dATP",> 20 µM
Cc1cn(C[C@H]2CCC[C@H]2COC(C(=O)O)P(=O)(O)O)c(=O)[nH]c1=O (relative stereo) [Compound 6a],IC50,HIV-1 RT; [3],≥ 500 µM
same,IC50,[1]; read-out: IC50 HCMV DNA Pol,40 ± 25 µM
same,IC50,HSV-1 DNA polymerase; [4],14 ± 14 µM
same,IC50,VZV DNA polymerase; [5],73 ± 1 µM
same,IC50,Human DNA Pol α; [6],165 ± 100 µM
same,IC50,Human DNA Pol β; [7],> 500 µM
